Source: patent US20090305954A1, “HISTIDINE-CONTAINING DIASTEREOMERIC PEPTIDES AND USES THEREOF” (Yeda Research and Development Co. Ltd., priority 2005, published 2009)
Square brackets hold non-standard residues; d marks the D form. Peptide text beside a SMILES is read from it.

Assays:
[1] = tested on: RFP-MDA-MB-231 breast cancer (BC) cells xenograft; assay: Inhibition of tumor growth in breast cancer xenografts; type: in vivo, female SCID/NCr mice
Protocol: RFP-MDA-MB-231 breast cancer (BC) cells were injected (5×10^6 cells in 0.1 ml PBS) into the left mammary fat pad of 8-week-old female SCID/NCr mice (NCI, USA) as previously described ([…] et al., 2004). […] Mice were weighed and tumor volume was measured by a caliper (expressed in weight units (mg) (Papo et al., 2003) twice a week for a period of 45 days. Monitoring of solid breast tumor and its derived metastases was done by in vivo fluorescence. Tumor fluorescence intensity was monitored in real time by using in vivo optical imaging system (IVIS) and was recorded once a week during the period of 38 days.

[2] = tested on: PC3 human prostate cancer cell line; assay: XTT proliferation (cytotoxicity) assay, PC3; type: cell-based; details: PC3, pH 7.4, 24 h
Protocol: The CL1 human prostate carcinoma (PC) cell line is an androgen-independent (AI) subclone of LNCaP cell line, which was generated by culturing androgen-dependent (AD) LNCaP cells in charcoal-stripped, […], as described (Patel et al. 2000). 22RV1 human PC cells are AI sub-clones of the AD prostatic adenocarcinoma CWR22 xenograft (Sramkoski et al. 1999). CL1 and 22RV1 (ATCC, USA) were grown in RPMI-1640 supplemented with 10% FCS (Biological Industries, Beit Haemek, Israel). PC3 and DU145 are androgen-insensitive (AI) (non-responsive), invasive human prostate cancer cell lines. NIH-3T3 mouse fibroblast cell lines (ATCC, USA) were grown in DMEM supplemented with 10% BS. Murine Lewis lung carcinoma (LLC) cell lines were also grown in DMEM medium supplemented with 10% fetal calf serum and antibiotics under the same conditions as above.
The anticancer activity of the diastereomers 1, 5 and 11-16, 36-39, 42 and 44 was examined against human CL1 prostate cancer, murine LLC (Lewis lung carcinoma), DU 145 and PC3 cell lines. The cell selectivity of the diastereomeric peptides was also studied by examining their effect on NIH-3T3 normal mouse fibroblasts cell line.
A 96-well plate (Falcon) was used for the XTT proliferation assay. Cancer cells were grown for 24 hours (day 1) in RPMI-1640 medium (5×10^3, 7×10^3, 1×10^4 and 7×10^3 cells/100 μl for LLC, CL1, 22RVI, DU 145 and PC3, respectively) supplemented with 10% fetal calf serum and antibiotics, at 37° C., in humidified atmosphere at 5% CO2 and 95% air, resulting in growth medium pH of 7.4. […]
In day 3, XTT reaction solution was prepared by adding to 100 μl aliquots of activation solution (sodium 3′-[1-(phenyl-aminocarbonyl)-3,4-tetrazolium]-bis(4-methoxy-6-nitro) benzene sulfonic acid hydrate and N-methyl dibenzopyrazine methyl sulfate; mixed in a proportion of 50:1) (protected from light and kept in −20° C.), the substrate. […] The optical density was read at wavelength of 450 nm in an ELISA plate reader. Cell viability was determined relative to the control and final results were recorded. […]

[3] = 5 mg/kg systemically, three times a week, 9 doses

CC(C)C[C@H](NC(=O)[C@H](CC(C)C)NC(=O)[C@@H](CCCCN)NC(=O)[C@H](CC(C)C)NC(=O)[C@H](CC(C)C)NC(=O)[C@H](Cc1c[nH]cn1)NC(=O)[C@@H](CCCCN)NC(=O)[C@@H](CC(C)C)NC(=O)[C@H](CC(C)C)NC(=O)[C@@H](CCCCN)NC(=O)[C@H](Cc1c[nH]cn1)NC(=O)[C@H](CC(C)C)NC(=O)[C@@H](CC(C)C)NC(=O)[C@H](CCCCN)NC(=O)[C@@H](N)CC(C)C)C(N)=O [Peptide 13] (H-LK[dL]LH[dK]L[dL][dK]HLL[dK]LL-NH2)
tumor fluorescence (IVIS) [1, 3]: marked lowering | tumor size (caliper measurements) [1, 3]: major reduction | body weight of the animals compared with vehicle-treated control group ([1]; mouse, in vivo): increase | condition of animals ([1]; throughout the assay period): good condition | Lethal Concentration (LC50) [2]: 25 µg/mL
